System: BT474 tumors
Assay: Targeted metabolomic analysis of 99 metabolites in BT474 tumors
Type: in vivo, mouse
Conditions: VY-3-135 vs vehicle
Procedure: All metabolomic experiments were performed in serum-like modified Eagle's medium (SMEM). SMEM contains 54 different nutrients that are found in the bloodstream at concentrations that are physiologically relevant to humans. SMEM was supplemented with 10% or 1% fetal bovine serum (FBS; Life Technologies). Cells were grown in normoxia (atmospheric oxygen) or hypoxia (1% oxygen) while being incubated in uniformly labeled ^13C2-acetate (0.100 mM; Cambridge Isotope Laboratories). Lengths of incubation are described in the figure legends. For extraction of metabolites from cultured cells, SMEM medium was aspirated and cells were washed once in ice-cold PBS. Metabolites were extracted by adding a solution of LC-MS grade methanol/acetonitrile/water (5:3:2) to the well. Plates were incubated at 4° C. for 5 minutes on a rocker and then the extraction solution was collected. The metabolite extract was cleared by centrifugation at 15,000×g for 10 minutes at 4° C. Supernatants were transferred to LC-MS silanized glass vials with PTFE caps and either run immediately on the LC-MS or stored at −80° C. For extraction of metabolites from tumors, tumor bearing mice were sacrificed by exsanguination under anesthesia and tumors were immediately excised and flash frozen in liquid nitrogen. Frozen tumors were weighed and then extracted at 40 mg/mL in extraction solution using a tissue homogenizer (Bullet Blender) and stainless steel beads. The metabolite extract was cleared twice by centrifugation at 15,000×g for 10 minutes at 4° C. Supernatants were transferred to LC-MS silanized glass vials with PTFE caps and either run immediately on the LC-MS or stored at −80° C.
LC-MS analysis was performed on a Q Exactive Hybrid Quadrupole-Orbitrap HF-X MS (ThermoFisher Scientific) equipped with a HESI II probe and coupled to a Vanquish Horizon UHPLC system (ThermoFisher Scientific). 0.002 ml of sample is injected and separated by HILIC chromatography on a ZIC-pHILIC 2.1-mm. Samples are separated by ammonium carbonate, 0.1% ammonium hydroxide, pH 9.2, and mobile phase B is acetonitrile. […] The relevant MS parameters were as listed: sheath gas, 40; auxiliary gas, 10; sweep gas, 1; auxiliary gas heater temperature, 350° C.; spray voltage, 3.5 kV for the positive mode and 3.2 kV for the negative mode. Capillary temperature was set at 325° C., and funnel RF level at 40. Samples were analyzed in full MS scan with polarity switching at scan range 65 to 975 m/z; 120,000 resolution; automated gain control (AGC) target of 1E6; and maximum injection time (max IT) of 100 milliseconds. Identification and quantitation of metabolites was performed using an annotated compound library and TraceFinder 4.1 software. The “M+X” nomenclature refers to the isotopolog for that given metabolite. Isotopologs are chemically identical metabolites that differ only in their number of carbon-13 atoms. For instance, “M+2 citrate” means that two of the six carbons in citrate are carbon-13 while the other four are carbon-12. “M+4 citrate” means that four of the six carbons in citrate are carbon-13 while the other two are carbon-12.
A targeted metabolomic analysis of 99 metabolites in vehicle versus VY-3-135 treated BT474 tumors was performed (FIG. 6E and Table 2).

CCn1c(C(O)(c2ccccc2)c2ccccc2)nc2ccc(C(=O)NC[C@@H](C)O)cc21 [VY-3-135, (R)-1-ethyl-2-(hydroxydiphenylmethyl)-N-(2-hydroxypropyl)-1H-benzo[d]imidazole-6-carboxamide]
Log2 FC (VY/Veh) 2-aminobutyrate: −0.5166 | Log2 FC (VY/Veh) 3 -hydroxybutryate: −1.001 | Log2 FC (VY/Veh) 3-phosphoglycerate: −0.5802 | Log2 FC (VY/Veh) 4-hydroxyproline: −0.725 | Log2 FC (VY/Veh) ADP: −1.452 | Log2 FC (VY/Veh) AMP: −0.6555 | Log2 FC (VY/Veh) ATP: −2.026 | Log2 FC (VY/Veh) CDP: −1.642 | Log2 FC (VY/Veh) CDP-choline: −2.603 | Log2 FC (VY/Veh) CDP-ethanolamine: −1.552 | Log2 FC (VY/Veh) CMP: −0.8199 | Log2 FC (VY/Veh) DHAP/G3P: −2.029 | Log2 FC (VY/Veh) FBP: −1.71 | Log2 FC (VY/Veh) GDP: −2.599 | Log2 FC (VY/Veh) GMP: −1.275 | Log2 FC (VY/Veh) GSH: −0.6903 | Log2 FC (VY/Veh) GSSG: 0.2094 | Log2 FC (VY/Veh) IMP: 1.067 | Log2 FC (VY/Veh) PEP: −1.207 | Log2 FC (VY/Veh) SAH: −0.3532 | Log2 FC (VY/Veh) SAM: −1.16 | Log2 FC (VY/Veh) UDP: −1.495 | Log2 FC (VY/Veh) UDP-GlcNAc: −0.8007 | Log2 FC (VY/Veh) UMP: −0.4024 | Log2 FC (VY/Veh) UTP: −2.182 | Log2 FC (VY/Veh) acetyl-aspartate: −0.7575 | Log2 FC (VY/Veh) acetyl-carnitine: −0.5449 | Log2 FC (VY/Veh) acetyl-glycine: −1.037 | Log2 FC (VY/Veh) acetyl-putrescine: −1.423 | Log2 FC (VY/Veh) adenine: 1.003 | Log2 FC (VY/Veh) adenosine: 1.879 | Log2 FC (VY/Veh) aketoglutarate: 0.9192 | Log2 FC (VY/Veh) alanine: −0.6739 | Log2 FC (VY/Veh) arginine: 0.7229 | Log2 FC (VY/Veh) arginosuccinate: −0.1741 | Log2 FC (VY/Veh) asparagine: −1.225 | Log2 FC (VY/Veh) aspartate: 0.009996 | Log2 FC (VY/Veh) betaine: −0.4739 | Log2 FC (VY/Veh) carbamoyl-asp: −0.787 | Log2 FC (VY/Veh) carnitine: −0.6768 | Log2 FC (VY/Veh) choline: −0.5304 | Log2 FC (VY/Veh) cis-aconitate: −0.2247 | Log2 FC (VY/Veh) citrate: −0.1134 | Log2 FC (VY/Veh) citrulline: −0.3937 | Log2 FC (VY/Veh) creatine: −0.5321 | Log2 FC (VY/Veh) creatinine: 0.01869 | Log2 FC (VY/Veh) cystathionine: −1.232 | Log2 FC (VY/Veh) cystine: −0.4837 | Log2 FC (VY/Veh) cytidine: 1.244 | Log2 FC (VY/Veh) cytosine: 1.232 | Log2 FC (VY/Veh) ethanolamine-P: −1.364 | Log2 FC (VY/Veh) glucose-6-P: 0.03691 | Log2 FC (VY/Veh) glucose/hexose: 0.9908 | Log2 FC (VY/Veh) glutamate: −0.5429 | Log2 FC (VY/Veh) glutamine: 0.09203 | Log2 FC (VY/Veh) glycerol: 0.1079 | Log2 FC (VY/Veh) glycerol-3-P: −0.8487 | Log2 FC (VY/Veh) glycine: −0.4034 | Log2 FC (VY/Veh) guanine: 1.969 | Log2 FC (VY/Veh) guanosine: 3.356 | Log2 FC (VY/Veh) histidine: −0.4238 | Log2 FC (VY/Veh) hypoxanthine: 0.3548 | Log2 FC (VY/Veh) isoleucine: −1.483 | Log2 FC (VY/Veh) lactate: −1.761 | Log2 FC (VY/Veh) leucine: −0.6361 | Log2 FC (VY/Veh) lysine: −1.026 | Log2 FC (VY/Veh) malate: 0.0239 | Log2 FC (VY/Veh) malonate: 0.1254 | Log2 FC (VY/Veh) methionine: −1.631 | Log2 FC (VY/Veh) methyl-lysine: −1.396 | Log2 FC (VY/Veh) myo-inositol: −0.4307 | Log2 FC (VY/Veh) niacin/nicotinate: 1.977 | Log2 FC (VY/Veh) nicotinamide: 0.1254 | Log2 FC (VY/Veh) nicotinamide N-oxide: 4.808 | Log2 FC (VY/Veh) ornithine: −0.7516 | Log2 FC (VY/Veh) pantothenate: −0.6181 | Log2 FC (VY/Veh) phenylalanine: −0.5091 | Log2 FC (VY/Veh) phosphocholine: −0.7924 | Log2 FC (VY/Veh) phosphocreatine: 0.324 | Log2 FC (VY/Veh) proline: −0.4024 | Log2 FC (VY/Veh) pyridoxine: 0.3808 | Log2 FC (VY/Veh) pyruvate: −0.8037 | Log2 FC (VY/Veh) riboflavin: −2.12 | Log2 FC (VY/Veh) ribose: −0.5026 | Log2 FC (VY/Veh) ribose-P: 0.2634 | Log2 FC (VY/Veh) sedoheptulose-P: −0.2584 | Log2 FC (VY/Veh) serine: 1.09 | Log2 FC (VY/Veh) succinate: −1.793 | Log2 FC (VY/Veh) succinyladenosine: −0.8738 | Log2 FC (VY/Veh) succinylcysteine: −0.9561 | Log2 FC (VY/Veh) succinylglutathione: −1.861 | Log2 FC (VY/Veh) taurine: 0.1159 | Log2 FC (VY/Veh) threonine: −0.9186 | Log2 FC (VY/Veh) thymidine: 2.328 | Log2 FC (VY/Veh) tryptophan: −0.2045 | Log2 FC (VY/Veh) tyrosine: −0.8432 | Log2 FC (VY/Veh) urate: −0.6288 | Log2 FC (VY/Veh) valine: −0.5942 | Log2 FC (VY/Veh) xanthine: −0.8286
